Measured values: patent publication US9580451B2, “Sulfonic esters of metal oxides and methods of their use” (California Institute of Technology, priority 2013, dated 2017)

Assay: Relative fluorescence quantum yield measurement
Type: physicochemical
Settings: degassed toluene, tetraphenylporphyrin as standard
Method: The Φem measurements were performed using degassed toluene solutions of 1,1-Al, 1-Ga, and tetraphenylporphyrin (as a standard). Samples were excited at λex=355 nm and the emission was observed from λem=500-800 nm. The standard tetraphenylporphyrin was excited at λex=514 nm and the emission was observed from λem=500-800 nm. Φem for tetraphenylporphyrin is 0.11.3 All relative fluorescence quantum yields were calculated based on the corresponding fluorescence spectra of the samples and the standard according to the equation: […]
where Φem(s) and Φem(x) are the relative fluorescence quantum yield of the standard and sample, respectively; As and Ax are the absorbance at the excitation wavelength for the standard and sample, respectively; Fs and Fx are the area under the corrected emission curve for the standard and sample, respectively; and ηs and ηx are the refractive index of the solvent used for the standard and sample, respectively.

φem, relative emission quantum yield: 0.094
SMILES: O=S(=O)(Cl)C1=Cc2nc1c(-c1c(F)c(F)c(F)c(F)c1F)c1ccc([nH]1)c(-c1c(F)c(F)c(F)c(F)c1F)c1ccc([nH]1)c(-c1c(F)c(F)c(F)c(F)c1F)c1cc(S(=O)(=O)Cl)c2[nH]1 [compound 1, 2,17-bischlorosulfonato-5,10,15-tris(pentafluorophenyl)corrole]
